{"source": "patent US10392354B2", "about": "“Highly selective anti-cancer agents targeting non-small cell lung cancer and other forms of cancer” (The University of Toledo, priority 2013, dated 2019)", "assay_type_in_all_cases": "cell-based", "key": {"NCI-H522 cells": {"system": "NCI-H522 cells", "test": "lethality / cell viability of NCI-H522 cells", "settings": "for lethality / activity on NCI-H522 cell line: concentration not given", "method": "FIGS. 5A-5C: The effect of compound 1f on NCI-H522 cells at 10 μM. […] Interval between images shown is 1 hour.\nFIGS. 5A-5C show the effects of 1f on NCI-H522 cells at 10 μM.\nThe effects of compound 2 on NCI-H522 cells, other cancer cells, and normal cell lines were evaluated. […] FIGS. 3A-3C show the effects of compound 2 on tubulin and mitochondrial function."}, "tubulin": {"system": "tubulin", "test": "cell staining with antibodies to tubulin in NCI-H522 cells", "settings": "in interphase or mitosis", "method": "(§1) FIGS. 3A-3C: The effect of compound 2 (10 μM) on tubulin and mitochondrial function. […] Arrowheads: two cells that have lost mitochondrial membrane potential; phase contrast indicates these are dead cells.\n(§2) The effects of compound 2 on NCI-H522 cells, other cancer cells, and normal cell lines were evaluated. Compound 2 killed NCI-H522 cells at 10 μM. […] FIGS. 3A-3C show the effects of compound 2 on tubulin and mitochondrial function."}, "mitochondrial potential": {"system": "mitochondrial potential", "test": "TMRE staining of mitochondrial membrane potential in NCI-H522 cells", "settings": "during the death process", "method": "as §1, §2"}}, "data": [{"smiles": "C#Cc1nc(C2=C(C)[C@@H](O)CC2)cs1", "note": "[Compound 2]", "values": [{"measurement": "cell killing of NCI-H522 cells", "setting": "NCI-H522 cells; 10 μM", "result": "killed"}, {"measurement": "effects on tubulin", "setting": "tubulin", "result": "no overt effects"}, {"measurement": "mitochondrial membrane potentials", "setting": "mitochondrial potential", "result": "intact until late in the death process"}]}, {"smiles": "C#Cc1nc(C2=C(C)C(=O)CC2)cs1", "note": "[Compound 3, 3-(2-ethynylthiazol-4-yl)-2-methylcyclopent-2-enone]", "values": [{"measurement": "lethality / activity on NCI-H522 cell line", "setting": "NCI-H522 cells", "result": "lethal"}]}, {"smiles": "C#Cc1nc(C2=C(C)C(=O)C(Cc3ccccc3)C2)cs1", "note": "(centres unmarked) [Compound 4, 5-benzyl-3-(2-ethynylthiazol-4-yl)-2-methylcyclopent-2-enone]", "values": [{"measurement": "lethality / activity on NCI-H522 cell line", "setting": "NCI-H522 cells", "result": "did not compromise"}]}]}
